Assay results: patent publication US20250129078A1, “ERBB2 INHIBITORS” (Cogent Biosciences, Inc., priority 2023, published 2025)

Experiments:
ErbB2 V777L = ErbB2 V777L (Homo sapiens (Human), UniProt P04626, V777L); assay: ErbB enzyme assay (CisBio HTRF-KinEASE-TK), ErbB2 V777L; type: biochemical
Method in brief: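 HTRF KinEASE-TK tyrosine-kinase read-out of substrate phosphorylation after a final 1 h at ambient temperature, from the 655/620 nm emission ratio.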

EGFR WT = EGFR WT (Homo sapiens (Human), UniProt P00533); assay: ErbB enzyme assay (CisBio HTRF-KinEASE-TK), EGFR WT; type: biochemical; conditions: ATP at Km (25 μM), 1 h incubation
Chain of EGFR WT (P00533 25-1210): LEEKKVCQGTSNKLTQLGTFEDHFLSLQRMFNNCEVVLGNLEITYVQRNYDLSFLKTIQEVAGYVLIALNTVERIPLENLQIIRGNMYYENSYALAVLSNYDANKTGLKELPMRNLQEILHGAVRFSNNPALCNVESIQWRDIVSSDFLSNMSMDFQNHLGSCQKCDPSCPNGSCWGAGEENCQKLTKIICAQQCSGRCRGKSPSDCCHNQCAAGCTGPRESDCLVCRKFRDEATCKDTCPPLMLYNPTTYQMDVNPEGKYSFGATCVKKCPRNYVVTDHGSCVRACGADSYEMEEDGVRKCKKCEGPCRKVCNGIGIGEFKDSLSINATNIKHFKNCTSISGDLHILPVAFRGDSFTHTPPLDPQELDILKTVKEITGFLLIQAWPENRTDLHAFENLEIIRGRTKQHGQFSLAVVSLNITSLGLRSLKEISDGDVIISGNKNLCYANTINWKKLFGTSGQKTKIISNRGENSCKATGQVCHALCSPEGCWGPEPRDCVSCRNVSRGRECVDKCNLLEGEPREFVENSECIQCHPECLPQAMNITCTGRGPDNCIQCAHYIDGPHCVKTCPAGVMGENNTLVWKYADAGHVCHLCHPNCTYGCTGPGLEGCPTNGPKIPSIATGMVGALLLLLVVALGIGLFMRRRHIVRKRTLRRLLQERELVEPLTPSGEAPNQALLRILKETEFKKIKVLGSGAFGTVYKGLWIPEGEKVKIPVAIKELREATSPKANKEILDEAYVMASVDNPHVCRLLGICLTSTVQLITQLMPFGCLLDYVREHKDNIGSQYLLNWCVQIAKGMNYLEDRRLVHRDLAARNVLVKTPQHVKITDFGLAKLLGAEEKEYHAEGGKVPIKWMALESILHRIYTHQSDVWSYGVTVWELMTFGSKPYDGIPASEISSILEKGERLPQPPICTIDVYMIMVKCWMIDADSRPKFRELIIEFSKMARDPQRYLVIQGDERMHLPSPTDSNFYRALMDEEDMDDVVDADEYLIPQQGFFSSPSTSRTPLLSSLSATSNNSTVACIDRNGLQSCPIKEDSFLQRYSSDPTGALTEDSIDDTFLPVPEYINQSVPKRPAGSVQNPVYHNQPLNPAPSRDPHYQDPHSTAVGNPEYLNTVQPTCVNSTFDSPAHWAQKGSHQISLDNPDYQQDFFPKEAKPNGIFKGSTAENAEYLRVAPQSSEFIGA
Method in brief: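 Compounds, serially diluted three-fold, were incubated with enzyme for 1 h at ambient temperature. Detection reagents were then added for a further hour, and the 655/620 nm HTRF ratio was normalised to uninhibited and pre-quenched controls. IC50 was fitted with a four-parameter logistic model.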

Chain of ErbB2 V777L (P04626 23-1255 V777L): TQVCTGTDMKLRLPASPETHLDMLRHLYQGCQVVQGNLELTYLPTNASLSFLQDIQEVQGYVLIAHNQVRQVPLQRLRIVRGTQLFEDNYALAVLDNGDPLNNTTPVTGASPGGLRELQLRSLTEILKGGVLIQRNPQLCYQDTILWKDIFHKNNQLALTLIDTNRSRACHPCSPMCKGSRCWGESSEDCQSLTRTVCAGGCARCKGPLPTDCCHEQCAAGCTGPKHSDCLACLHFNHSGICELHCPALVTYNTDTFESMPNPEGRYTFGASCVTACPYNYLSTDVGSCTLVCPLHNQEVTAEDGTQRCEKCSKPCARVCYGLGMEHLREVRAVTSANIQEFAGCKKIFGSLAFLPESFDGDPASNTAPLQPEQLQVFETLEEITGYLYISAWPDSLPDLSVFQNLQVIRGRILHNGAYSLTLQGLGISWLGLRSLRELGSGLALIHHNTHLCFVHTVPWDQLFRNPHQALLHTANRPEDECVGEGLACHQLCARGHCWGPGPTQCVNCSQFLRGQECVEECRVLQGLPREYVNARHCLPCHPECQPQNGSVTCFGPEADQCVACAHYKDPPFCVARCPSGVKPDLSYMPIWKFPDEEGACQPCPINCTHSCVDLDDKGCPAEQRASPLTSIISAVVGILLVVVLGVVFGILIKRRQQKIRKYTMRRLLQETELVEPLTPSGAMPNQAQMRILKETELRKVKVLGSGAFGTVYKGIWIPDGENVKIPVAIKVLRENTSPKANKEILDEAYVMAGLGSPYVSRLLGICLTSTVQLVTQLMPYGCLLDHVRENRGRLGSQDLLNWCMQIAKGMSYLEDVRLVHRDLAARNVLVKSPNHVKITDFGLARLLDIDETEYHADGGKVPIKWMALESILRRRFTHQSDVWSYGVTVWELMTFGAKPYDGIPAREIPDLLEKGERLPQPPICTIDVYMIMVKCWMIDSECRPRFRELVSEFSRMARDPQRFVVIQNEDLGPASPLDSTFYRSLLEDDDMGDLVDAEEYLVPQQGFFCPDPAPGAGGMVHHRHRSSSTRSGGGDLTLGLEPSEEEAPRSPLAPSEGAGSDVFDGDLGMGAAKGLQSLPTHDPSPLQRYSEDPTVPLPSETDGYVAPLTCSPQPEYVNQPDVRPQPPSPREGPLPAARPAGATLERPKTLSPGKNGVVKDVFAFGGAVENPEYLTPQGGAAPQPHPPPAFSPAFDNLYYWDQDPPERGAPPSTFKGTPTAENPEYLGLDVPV

Row | IC50 (ErbB2 V777L) | IC50 (EGFR WT) | SMILES
1 | 50 to 100 nM | 100 to 500 nM | C=CC(=O)N1CCN(c2ncc3ncnc(Nc4cc(C)c(Oc5ccc6c(c5)ncn6C(F)F)cc4OC)c3n2)CC1 [Compound 37, 1-(4-(8-((4-((1-(difluoromethyl)-1H-benzo[d]imidazol-5-y1)oxy)-2-methoxy-5-methylphenyl)amino)pyrimido[5,4-d]pyrimidin-2-yl)piperazin-1-yl)prop-2-en-1-one 2,2,2-trifluoroacetate]
2 | 100 to 500 nM | 100 to 500 nM | C=CC(=O)N1CCN(c2ncc3ncnc(Nc4ccc(Oc5ccc6c(c5)nnn6C)c(OC)c4F)c3n2)CC1 [Compound 45, 1-(4-(8-((2-fluoro-3-methoxy-4-((1-methyl-1H-benzo[d][1,2,3]triazol-5-yl)oxy)phenyl)amino)pyrimido [5,4-d]pyrimidin-2-yl)piperazin-1-yl)prop-2-en-1-one]
3 | 100 to 500 nM | 500 to 1000 nM | COC/C=C/C(=O)N1CCN(c2ncc3ncnc(Nc4ccc(Oc5ccc6c(c5)nnn6C)c(C)c4)c3n2)CC1 [Compound 56, (E)-4-methoxy-1-(4-(8-((3-methyl-4-((1-methyl-1H-benzo[d][1,2,3]triazol-5-yl)oxy)phenyl)amino)pyrimido [5,4-d]pyrimidin-2-yl)piperazin-1-yl) but-2-en-1-one]
4 | 100 to 500 nM | ≥ 1000 nM | C=CC(=O)N1C[C@@H](C)N(c2ncc3ncnc(Nc4ccc(Oc5ccc6c(c5)nnn6C)c(C)c4)c3n2)C[C@H]1C [Compound 186, 1-((2R,5R)-2,5-dimethyl-4-(8-((3-methyl-4-((1-methyl-1H-benzo[d][1,2,3]triazol-5-yl)oxy)phenyl)amino)pyrimido[5,4-d]pyrimidin-2-yl)piperazin-1-yl)prop-2-en-1-one]
5 | 50 to 100 nM | 100 to 500 nM | C=CC(=O)N1C[C@H](N(C)c2ccc3ncnc(Nc4ccc(Oc5ccc6c(c5)nnn6C)c(C)c4)c3n2)C[C@H]1C [Compound 266, 1-((2R,4R)-2-methyl-4-(methyl(4-((3-methyl-4-((1-methyl-1H-benzo[d][1,2,3]triazol-5-yl)oxy)phenyl)amino)pyrido[3,2-d]pyrimidin-6-yl)amino)pyrrolidin-1-yl)prop-2-en-1-one]
6 | 100 to 500 nM | 100 to 500 nM | Cc1c(Oc2ccc3c(c2)nnn3C)ccc(Nc2ncnc3cnc(N4CCN(C(=O)/C=C/CN5CC(F)C5)CC4)nc23)c1F [Compound 59, (E)-1-(4-(8-((2-fluoro-3-methyl-4-((1-methyl-1H-benzo[d][1,2,3]triazol-5-yl)oxy)phenyl)amino)pyrimido [5,4-d]pyrimidin-2-yl)piperazin-1-yl)-4-(3-fluoroazetidin-1-yl)but-2-en-1-one]
7 | 100 to 500 nM | 50 to 100 nM | C=CC(=O)NC1CCC(c2ccc3ncnc(Nc4ccc(Oc5ccc6c(c5)nnn6C)c(C)c4)c3n2)CC1 (stereo not shown) [Compound 400, N-(4-(4-((3-methyl-4-((1-methyl-1H-benzo[d][1,2,3]triazol-5-yl)oxy)phenyl)amino)pyrido[3,2-d]pyrimidin-6-yl)cyclohexyl)acrylamide]
8 | 50 to 100 nM | 100 to 500 nM | C=CC(=O)N1[C@@H]2COC[C@H]1CN(c1ncc3ncnc(Nc4ccc(Oc5ccc6c(c5)nnn6C)c(C)c4)c3n1)C2 [Compound 140, 1-((1R,5S)-7-(8-((3-methyl-4-((1-methyl-1H-benzo[d][1,2,3]triazol-5-yl)oxy)phenyl)amino)pyrimido [5,4-d]pyrimidin-2-yl)-3-oxa-7,9-diazabicyclo[3.3.1]nonan-9-yl)prop-2-en-1-one]
9 | 500 to 1000 nM | ≥ 1000 nM | C=CC(=O)N1CCN(c2ccc3ncnc(Nc4ccc(Oc5ccc6c(c5)nnn6C)c(C)c4F)c3n2)C[C@@H]1C1CC1 [Compound 271, (S)-1-(2-cyclopropyl-4-(4-((2-fluoro-3-methyl-4-((1-methyl-1H-benzo[d][1,2,3]triazol-5-yl)oxy)phenyl)amino)pyrido[3,2-d]pyrimidin-6-yl)piperazin-1-yl)prop-2-en-1-one]
10 | 100 to 500 nM | 100 to 500 nM | C=CC(=O)N1CC=C(c2ncc3ncnc(Nc4ccc(Oc5ccn6ncnc6c5)c(C)c4F)c3n2)C[C@@H]1C [Compound 404, (S)-1-(4-(8-((4-([1,2,4]triazolo[1,5-a]pyridin-7-yloxy)-2-fluoro-3-methylphenyl)amino)pyrimido[5,4-d]pyrimidin-2-yl)-2-methyl-3,6-dihydropyridin-1(2H)-yl)prop-2-en-1-one]
11 | 100 to 500 nM | 100 to 500 nM | C=CC(=O)N1CCC12CN(c1ncc3ncnc(Nc4ccc(Oc5ccc6c(c5)nnn6C)c(C)c4F)c3n1)C2 [Compound 67, 1-(6-(8-((2-fluoro-3-methyl-4-((1-methyl-1H-benzo[d][1,2,3]triazol-5-yl)oxy)phenyl)amino)pyrimido[5,4-d]pyrimidin-2-yl)-1,6-diazaspiro[3.3]heptan-1-yl)prop-2-en-1-one]
12 | 100 to 500 nM | < 50 nM | C=CC(=O)N1C[C@H]2C[C@@H]1CN(c1ncc3ncnc(Nc4ccc(Oc5cc(F)c6c(c5)ncn6C)c(C)c4F)c3n1)C2 [Compound 167, 1-((1S,5R)-3-(8-((2-fluoro-4-((7-fluoro-1-methyl-1H-benzo[d]imidazol-5-y1)oxy)-3-methylphenyl)amino)pyrimido[5,4-d]pyrimidin-2-yl)-3,6-diazabicyclo[3.2.1]octan-6-yl)prop-2-en-1-one]
13 | 50 to 100 nM | 100 to 500 nM | C=CC(=O)N1CCN(c2ccc3ncnc(Nc4cc(C)c(Oc5ccc6c(c5)nnn6C)cc4OC(F)F)c3n2)CC1 [Compound 315, 1-(4-(4-((2-(difluoromethoxy)-5-methyl-4-((1-methyl-1H-benzo[d][1,2,3]triazol-5-yl)oxy)phenyl)amino)pyrido[3,2-d]pyrimidin-6-yl)piperazin-1-yl)prop-2-en-1-one]
14 | 50 to 100 nM | 500 to 1000 nM | C=CC(=O)N1CCN(c2ccc3ncnc(Nc4ccc(Oc5cc6ncn(C)c6nc5C)c(C)c4)c3n2)C[C@H]1C [Compound 247, (R)-1-(4-(4-((4-((3,5-dimethyl-3H-imidazo[4,5-b]pyridin-6-yl)oxy)-3-methylphenyl)amino)pyrido[3,2-d]pyrimidin-6-yl)-2-methylpiperazin-1-yl)prop-2-en-1-one]
15 | 50 to 100 nM | 100 to 500 nM | Cc1c(Oc2ccc3c(c2)nnn3C)ccc(Nc2ncnc3ccc(N4CCN(C(=O)/C=C/CF)[C@H](C)C4)nc23)c1F [Compound 360, (R,E)-4-fluoro-1-(4-(4-((2-fluoro-3-methyl-4-((1-methyl-1H-benzo[d][1,2,3]triazol-5-yl)oxy)phenyl)amino)pyrido[3,2-d]pyrimidin-6-yl)-2-methylpiperazin-1-yl)but-2-en-1-one]
16 | 100 to 500 nM | 100 to 500 nM | C=CC(=O)N1CCN(c2ncc3ncnc(Nc4c(F)cc(Oc5ccc6c(c5)nnn6C)c(F)c4F)c3n2)CC1 [Compound 19, 1-(4-(8-((2,3,6-trifluoro-4-((1-methyl-1H-benzo[d][1,2,3]triazol-5-yl)oxy)phenyl)amino)pyrimido [5,4-d]pyrimidin-2-yl)piperazin-1-yl)prop-2-en-1-one]
17 | 500 to 1000 nM | ≥ 1000 nM | C=CC(=O)N[C@@H]1CCCN(c2ccc3ncnc(Nc4cc(C)c(Oc5ccc6c(c5)nnn6C)cc4OC)c3n2)C1 [Compound 274, (R)-N-(1-(4-((2-methoxy-5-methyl-4-((1-methyl-1H-benzo[d][1,2,3]triazol-5-yl)oxy)phenyl)amino)pyrido[3,2-d]pyrimidin-6-yl)piperidin-3-yl)acrylamide]
